Measured values reported in ChEMBL document CHEMBL2016468, “Development of rationally designed DNA N6 adenine methyltransferase inhibitors” (Bioorg Med Chem Lett, 2012).

Experiment: Inhibition of Yersinia pestis Dam using oligonucleotide 1 as substrate after 2000 to 3000 sec by micro plate reader based real-time break-light assay

Row | Compound | IC50 [µM]
1 | Nc1ncnc2c1ncn2[C@@H]1O[C@H](CNCC[C@H](N)C(=O)O)[C@@H](O)[C@H]1O | 84
2 | Nc1ncnc2c1ncn2[C@@H]1O[C@H](CN(CC[C@H](N)C(=O)O)Cc2ccccn2)[C@@H](O)[C@H]1O | > 250
3 | Nc1ncnc2c1ncn2[C@@H]1O[C@H](CN(CCCc2ccccn2)CC[C@H](N)C(=O)O)[C@@H](O)[C@H]1O | > 250
4 | Nc1ncnc2c1ncn2[C@@H]1O[C@H](CN(CCc2c[nH]c3ccccc23)CC[C@H](N)C(=O)O)[C@@H](O)[C@H]1O | 12.3
5 | Nc1ncnc2c1ncn2[C@@H]1O[C@H](CN(CCCc2c[nH]c3ccccc23)CC[C@H](N)C(=O)O)[C@@H](O)[C@H]1O | 13.1
6 | Nc1ncnc2c1ncn2[C@@H]1O[C@H](CN(CCc2coc3ccccc23)CC[C@H](N)C(=O)O)[C@@H](O)[C@H]1O | 39.2
7 | Nc1ncnc2c1ncn2[C@@H]1O[C@H](CN(CCc2csc3ccccc23)CC[C@H](N)C(=O)O)[C@@H](O)[C@H]1O | 28.9
8 | Nc1ncnc2c1ncn2[C@@H]1O[C@H](CN(CCc2cccc3[nH]ccc23)CC[C@H](N)C(=O)O)[C@@H](O)[C@H]1O | 31.3
9 | Nc1ncnc2c1ncn2[C@@H]1O[C@H](CSCC[C@H](N)C(=O)O)[C@@H](O)[C@H]1O [S-ADENOSYLHOMOCYSTEINE] | 11.9
